Experimental data as given in ChEMBL document CHEMBL5518236, “Discovery of Clinical Candidate AZD5462, a Selective Oral Allosteric RXFP1 Agonist for Treatment of Heart Failure” (J Med Chem, 2024).

Tests used:
[1] = Octanol/water partition coefficient, logD of the compound at pH 7.4 by shake flask method; assay type: physicochemical
[2] = Metabolic stability in human hepatocytes assessed as intrinsic clearance measured per 10^6 viable cells/ml at 1 uM measured upto 120 mins by LC-MS/MS analysis; assay type: ADME, cell-based, Hepatocyte; conditions: read-out: CLH
[3] = Metabolic stability in human hepatocytes assessed as unbound intrinsic clearance measured per 10^6 viable cells/ml at 1 uM measured upto 120 mins by LC-MS/MS analysis; assay type: ADME, cell-based, Hepatocyte; conditions: 2 h
[4] = Metabolic stability in human liver microsomes assessed as intrinsic clearance at 1 uM measured upto 30 mins by LC-MS/MS analysis; assay type: ADME, Microsome; conditions: read-out: CLH
[5] = Metabolic stability in human liver microsomes assessed as unbound intrinsic clearance at 1 uM measured upto 30 mins by LC-MS/MS analysis; assay type: ADME, Microsome; conditions: 0.5 h

Row | Structure (SMILES) | logD [1] | hepatocyte CLint at 1 µM [2] [µL/min/1e6 cells] | CL free [3] [µL/min] | microsomal CLint at 1 µM [4] [µL/min/mg] | CL free [5] [µL/min/mg]
1 | CC1(CNC(=O)[C@H]2[C@@H]3CC[C@@H](C3)[C@H]2NC(=O)c2cc(O[C@H]3CC[C@@](C)(C(=O)O)CC3)c(F)cc2O)CCC1 | 3.3 | 58 | 105 | 12.6 | 17
2 | COc1cc(F)c(O[C@H]2CC[C@@](C)(c3nnn[nH]3)CC2)cc1C(=O)N[C@@H]1[C@H]2CC[C@H](C2)[C@@H]1C(=O)NCC1(C)CCC1 | 2.8 | 5.8 | 13 | 15 | 29
3 | COc1c(Cl)cc(O[C@H]2CC[C@@](C)(C(=O)O)CC2)cc1C(=O)N[C@@H]1[C@H]2CC[C@H](C2)[C@@H]1C(=O)NCC1(C)CCC1 | 3.3 | 13 | 31 | 81 | 147
4 | CC1(CNC(=O)[C@H]2[C@@H]3CC[C@@H](C3)[C@H]2NC(=O)c2cc(O[C@H]3CC[C@@](C)(C(=O)O)CC3)c(F)cc2F)CCC1 | 2.9 | 6.7 | 10 | 37 | 49
5 | COc1c(C)cc(O[C@H]2CC[C@@](C)(C(=O)O)CC2)cc1C(=O)N[C@@H]1[C@H]2CC[C@H](C2)[C@@H]1C(=O)NCC1(C)CCC1 | 2.9 | 5.6 | 8.9 | 7 | 10
6 | COc1cc(Cl)c(O[C@H]2CC[C@@](C)(C(=O)O)CC2)cc1C(=O)N[C@@H]1[C@H]2CC[C@H](C2)[C@@H]1C(=O)NCC1(C)CCC1 | 3.5 | 4.8 | 14 | 36 | 64
7 | COc1cc(Cl)c(O[C@H]2CC[C@@](C)(C(=O)O)CC2)cc1C(=O)N[C@@H]1[C@@H]2CC[C@@H](C2)[C@@H]1C(=O)NCC1(C)CCC1 | 3.6 | 49 | 153 | 20 | 100
8 | COc1cc(F)c(O[C@H]2C[C@@](C)(C(=O)O)C2)cc1C(=O)N[C@@H]1[C@H]2CC[C@H](C2)[C@@H]1C(=O)NCC1(C)CCC1 | 2 | 4.3 | 5.4 | 7.6 | 10
9 | COc1cc(C#N)c(O[C@H]2CC[C@@](C)(C(=O)O)CC2)cc1C(=O)N[C@@H]1[C@H]2CC[C@H](C2)[C@@H]1C(=O)NCC1(C)CCC1 | 2.85 | 5.5 | 10 | 20 | 30
10 | COc1cc(C)c(O[C@H]2CC[C@@](C)(C(=O)O)CC2)cc1C(=O)N[C@@H]1[C@H]2CC[C@H](C2)[C@@H]1C(=O)NCC1(C)CCC1 | 3.5 | 3.1 | 4.9 | 38 | 54
11 | CCc1cc(OC)c(C(=O)N[C@@H]2[C@H]3CC[C@H](C3)[C@@H]2C(=O)NCC2(C)CCC2)cc1O[C@H]1CC[C@@](C)(C(=O)O)CC1 | 4 | 3.9 | 9.1 | 44 | 83
12 | COc1cc(C2CC2)c(O[C@H]2CC[C@@](C)(C(=O)O)CC2)cc1C(=O)N[C@@H]1[C@H]2CC[C@H](C2)[C@@H]1C(=O)NCC1(C)CCC1 | 3.7 | 5.3 | 13 | 27 | 62
13 | COc1c(F)cc(O[C@H]2CC[C@@](C)(C(=O)O)CC2)cc1C(=O)N[C@@H]1[C@H]2CC[C@H](C2)[C@@H]1C(=O)NCC1(C)CCC1 | 3.3 | 5.3 | 9.5 | 44 | 73
